For one series, the target named is CYP3A4 (Homo sapiens (Human), UniProt P08684). As to the kind of experiment: Inhibition of the testosterone metabolite site of CYP3A4 in human liver microsomes. The format is in vitro ADME. The conditions noted are these: probe substrate testosterone. The method, then: The effect of the compounds of the present invention on the enzyme activity of testosterone metabolite site of CYP3A4 in human liver microsomes was determined by the following experimental method:
100 mM PBS buffer was formulated, which was then used to formulate 2.5 mg/ml microsome solution and 5 mM NADPH solution. The 5× concentration of the compound working solution was diluted with PBS gradient (150, 50, 15, 5, 1.5, 0.15, 0.015, 0 μM). The 5× concentration of ketoconazole working solution was diluted with PBS gradient (150, 50, 15, 5, 1.5, 0.15, 0.015, 0 μM). Dextromethorphan working solution was diluted with PBS to a concentration of 50 μM.
(§1) 20 μl of 2.5 mg/ml microsome solution, 20 μl of 50 μM testosterone working solution, 20 μl of MgCl2 solution and 20 μl of the compound working solution (150, 50, 15, 5, 1.5, 0.15, 0.015, 0 μM, different reaction systems for each concentration) were taken respectively and mixed well. For the positive control group, the compound was replaced with the same concentration of ketoconazole. The mixture together with 5 mM NADPH solution were pre-incubated at 37° C. for 5 minutes. After 5 minutes, 20 μl of NADPH were added to each well, the reaction was started and incubated for 30 minutes. All the incubated samples were present in duplicate. After 30 minutes, 250 μl of acetonitrile containing internal standard were added to all samples, mixed well, shaken at 800 rpm for 10 minutes, and then centrifuged at 3700 rpm for 10 minutes. 80 μl of the supernatant were taken and analyzed by LC-MS/MS.
The data were calculated by Graphpad Prism to obtain the IC50 values of the compounds on the testosterone metabolite site of CYP3A4.

The target of a further series is human TLR8 (Homo sapiens (Human), UniProt Q9NR97). As to the kind of experiment: Agonistic activity on human TLR8 in HEK-Blue hTLR8 stably transfected cells. In kind it is cell-based. The note with it: for EC50: OD 620 nm. The protocol:
The activation effect of the compounds of the present invention on the hTLR8 protein expressed by the HEK-Blue™ hTLR8 stably transfected cells was determined by the following experimental method:
A bag of HEK-Blue detection dry powder was dissolved in 50 ml of water free of endotoxin, and the solution was then placed in an incubator at 37° C. for 10 minutes followed by sterile filtration to prepare a HEK-Blue detection medium. The compound was firstly formulated into a 20 mM stock solution, then diluted with pure DMSO to a maximum concentration of 6×10^6 nM, and a total of 10 points were obtained by a 3-fold gradient dilution. The compound was firstly diluted 20-fold with the medium, then 20 μl of the diluted compound were added to each well.
The supernate was removed from the HEK-Blue™ hTLR8 cells, to which 2-5 ml of pre-warmed PBS were then added. The cells were placed in an incubator for 1-2 minutes, gently pipetted, and counted by trypan blue staining. The cells were re-suspended in the HEK-Blue detection medium to adjust the concentration to 2.2×10^5 cells/ml. 180 μl of cells were added to the above 96-well plate already added with 20 μl of the compounds, and incubated at 37° C. for 6-16 hours.
The activation effect of the compounds of the present invention on human TLR8 can be determined by the above test, and the obtained EC50 values are shown in Table 2.

The target of a further series is CYP2D6 (Homo sapiens (Human), UniProt P10635). As to the kind of experiment: Inhibition of the enzyme activity of CYP2D6 in human liver microsomes. The conditions noted are these: probe substrate dextromethorphan. In kind it is in vitro ADME. The method, then: The effect of the compounds of the present invention on the enzyme activity of CYP2D6 in human liver microsomes was determined by the following experimental method:
100 mM PBS buffer was formulated, which was then used to formulate 2.5 mg/ml microsome solution and 5 mM NADPH solution. The 5× concentration of the compound working solution was diluted with PBS gradient (150, 50, 15, 5, 1.5, 0.15, 0.015, 0 μM). The 5× concentration of quinidine working solution was diluted with PBS gradient (150, 50, 15, 5, 1.5, 0.15, 0.015, 0 μM). Dextromethorphan working solution was diluted with PBS to a concentration of 50 μM.
as §1, with “quinidine.” for “ketoconazole.”
The data were calculated by Graphpad Prism to obtain the IC50 values of the compounds on the metabolite site of CYP2D6.
A general note: Microsomes from liver hold many membrane-bound enzymes, among them those of drug oxidation.

The target of the next series is human TLR7 (Homo sapiens (Human), UniProt Q9NYK1). Briefly: Agonistic activity on human TLR7 in HEK-Blue hTLR7 stably transfected cells. The format is cell-based. The note with it: for EC50: OD 620 nm. The method, then: The activation effect of the compounds of the present invention on the hTLR7 protein expressed by the HEK-Blue™ hTLR7 stably transfected cells was determined by the following experimental method:
A bag of HEK-Blue detection dry powder was dissolved in 50 ml of water free of endotoxin, and the solution was then placed in an incubator at 37° C. for 10 minutes followed by sterile filtration to prepare a HEK-Blue detection medium. The compound was firstly formulated into a 20 mM stock solution, then diluted with pure DMSO to a maximum concentration of 6×10^6 nM, and a total of 10 points were obtained by a 3-fold gradient dilution.
The above formulated compound was firstly diluted 20-fold with the medium, then 20 μl of the diluted compound were added to each well. The supernate was removed from the HEK-Blue™ hTLR7 cells, to which 2-5 ml of pre-warmed PBS were then added. The cells were placed in an incubator for 1-2 minutes, gently pipetted, and counted by trypan blue staining. The cells were re-suspended in the HEK-Blue detection medium to adjust the concentration to 2.2×10^5 cells/ml. 180 μl of cells were added to the above 96-well plate already added with 20 μl of the compounds, and incubated at 37° C. for 6-16 hours.
The activation effect of the compounds of the present invention on human TLR7 can be determined by the above test, and the obtained EC50 values are shown in Table 1.

Chain of human TLR7 (Q9NYK1 27-1049): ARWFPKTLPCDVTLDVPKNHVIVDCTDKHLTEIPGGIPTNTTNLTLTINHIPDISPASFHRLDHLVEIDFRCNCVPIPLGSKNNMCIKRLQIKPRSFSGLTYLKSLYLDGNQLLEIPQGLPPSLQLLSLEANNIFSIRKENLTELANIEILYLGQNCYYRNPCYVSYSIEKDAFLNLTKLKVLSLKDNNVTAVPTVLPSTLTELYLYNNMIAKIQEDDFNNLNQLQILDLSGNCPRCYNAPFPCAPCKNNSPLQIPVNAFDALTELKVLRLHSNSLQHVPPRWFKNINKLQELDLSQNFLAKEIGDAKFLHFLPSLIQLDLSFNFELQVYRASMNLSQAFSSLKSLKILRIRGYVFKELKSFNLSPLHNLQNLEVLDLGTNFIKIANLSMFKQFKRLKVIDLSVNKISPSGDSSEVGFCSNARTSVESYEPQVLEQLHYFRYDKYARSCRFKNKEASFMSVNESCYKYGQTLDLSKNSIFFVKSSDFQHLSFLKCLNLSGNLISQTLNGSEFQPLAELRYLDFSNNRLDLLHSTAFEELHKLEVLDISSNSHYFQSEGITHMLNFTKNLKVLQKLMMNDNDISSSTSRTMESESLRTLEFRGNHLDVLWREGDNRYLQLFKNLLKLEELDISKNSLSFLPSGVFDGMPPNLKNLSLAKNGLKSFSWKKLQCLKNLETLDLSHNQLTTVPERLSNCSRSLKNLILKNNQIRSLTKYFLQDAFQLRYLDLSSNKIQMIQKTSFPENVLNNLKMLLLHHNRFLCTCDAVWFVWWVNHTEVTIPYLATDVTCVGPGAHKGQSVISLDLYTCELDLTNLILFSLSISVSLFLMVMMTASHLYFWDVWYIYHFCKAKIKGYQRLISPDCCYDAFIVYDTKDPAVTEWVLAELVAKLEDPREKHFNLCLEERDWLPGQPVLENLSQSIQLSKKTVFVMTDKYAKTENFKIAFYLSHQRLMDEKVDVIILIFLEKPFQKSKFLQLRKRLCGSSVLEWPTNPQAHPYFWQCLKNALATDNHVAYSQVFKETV
Chain of human TLR8 (Q9NR97 27-1041): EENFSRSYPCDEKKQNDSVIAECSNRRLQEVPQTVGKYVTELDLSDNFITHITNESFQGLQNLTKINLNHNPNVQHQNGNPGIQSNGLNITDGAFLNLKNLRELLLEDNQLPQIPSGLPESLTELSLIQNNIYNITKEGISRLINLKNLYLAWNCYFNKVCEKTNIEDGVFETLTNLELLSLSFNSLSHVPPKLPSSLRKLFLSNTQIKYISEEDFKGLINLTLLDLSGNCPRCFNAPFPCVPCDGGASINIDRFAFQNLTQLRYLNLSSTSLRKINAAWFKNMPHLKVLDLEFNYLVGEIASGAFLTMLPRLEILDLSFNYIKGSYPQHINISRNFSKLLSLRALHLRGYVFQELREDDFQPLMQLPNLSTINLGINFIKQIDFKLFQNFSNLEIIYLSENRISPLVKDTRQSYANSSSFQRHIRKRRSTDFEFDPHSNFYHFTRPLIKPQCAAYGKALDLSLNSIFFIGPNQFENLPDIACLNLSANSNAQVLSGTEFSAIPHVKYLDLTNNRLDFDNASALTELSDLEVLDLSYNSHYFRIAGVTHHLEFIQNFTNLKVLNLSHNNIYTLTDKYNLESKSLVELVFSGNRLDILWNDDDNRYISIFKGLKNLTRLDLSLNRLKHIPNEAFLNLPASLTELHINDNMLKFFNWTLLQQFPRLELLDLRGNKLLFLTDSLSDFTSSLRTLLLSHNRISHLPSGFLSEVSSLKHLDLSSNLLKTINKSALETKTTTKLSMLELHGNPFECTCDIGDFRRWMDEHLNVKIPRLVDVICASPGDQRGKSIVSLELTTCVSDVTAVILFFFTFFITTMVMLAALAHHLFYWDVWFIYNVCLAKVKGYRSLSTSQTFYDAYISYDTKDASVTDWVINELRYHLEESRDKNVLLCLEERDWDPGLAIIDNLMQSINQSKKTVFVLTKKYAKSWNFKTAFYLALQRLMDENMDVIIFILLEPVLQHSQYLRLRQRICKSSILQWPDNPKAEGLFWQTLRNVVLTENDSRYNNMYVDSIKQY
Chain of CYP2D6 (P10635 whole entry): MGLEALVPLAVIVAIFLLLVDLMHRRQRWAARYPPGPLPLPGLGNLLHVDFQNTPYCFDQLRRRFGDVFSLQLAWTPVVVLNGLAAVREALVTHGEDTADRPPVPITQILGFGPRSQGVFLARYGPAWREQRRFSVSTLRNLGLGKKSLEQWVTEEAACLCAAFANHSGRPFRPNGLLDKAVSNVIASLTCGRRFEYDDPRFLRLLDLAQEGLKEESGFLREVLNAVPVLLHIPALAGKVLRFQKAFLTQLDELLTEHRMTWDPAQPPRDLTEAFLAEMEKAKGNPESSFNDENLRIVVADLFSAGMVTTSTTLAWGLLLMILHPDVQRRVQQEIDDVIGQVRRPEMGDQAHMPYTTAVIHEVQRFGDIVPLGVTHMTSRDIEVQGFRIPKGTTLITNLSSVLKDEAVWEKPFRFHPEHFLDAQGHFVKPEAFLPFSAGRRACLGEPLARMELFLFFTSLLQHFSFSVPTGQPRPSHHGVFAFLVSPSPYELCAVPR
Chain of CYP3A4 (P08684 whole entry): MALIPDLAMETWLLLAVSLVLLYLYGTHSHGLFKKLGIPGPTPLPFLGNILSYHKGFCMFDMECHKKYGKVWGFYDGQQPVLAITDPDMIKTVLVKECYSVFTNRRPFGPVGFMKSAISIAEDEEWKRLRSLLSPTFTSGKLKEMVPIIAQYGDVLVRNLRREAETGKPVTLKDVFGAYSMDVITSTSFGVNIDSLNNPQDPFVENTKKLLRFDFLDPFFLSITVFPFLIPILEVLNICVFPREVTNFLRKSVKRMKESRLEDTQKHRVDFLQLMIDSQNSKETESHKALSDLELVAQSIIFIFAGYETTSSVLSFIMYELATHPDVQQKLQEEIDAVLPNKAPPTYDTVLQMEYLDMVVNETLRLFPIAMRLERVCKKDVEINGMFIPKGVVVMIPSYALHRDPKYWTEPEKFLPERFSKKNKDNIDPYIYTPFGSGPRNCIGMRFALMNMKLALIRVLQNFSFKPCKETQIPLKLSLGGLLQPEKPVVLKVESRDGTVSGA

For orientation: IC50 means the concentration that gives 50% inhibition. The Emax is the size of the effect at its maximum, as opposed to the concentration needed. The EC50 is the midpoint of the concentration-response curve. Lower therefore signals higher potency in that assay. With `CCCCOc1nc(N)c2cnn(Cc3ccc(CN4CCC4)cc3)c2n1` [Example 2, 1-(4-(Azetidin-1-ylmethyl)benzyl)-6-butoxy-1H-pyrazolo[3,4-d]pyrimidin-4-amine], the IC50 at CYP3A4 was 19 µM; against CYP2D6, greater than 30 µM. Also, the figures for the maximal response (Emax) at human TLR8 and on human TLR7 were 52% and 91%, respectively. Besides, the EC50 at human TLR8 was greater than 29 µM; at human TLR7, 0.064 µM.

In the case of `COCCOc1nc(N)c2cnn(Cc3ccc(CN4CCCC4)cc3)c2n1` [Example 7, 6-(2-Methoxyethoxy)-1-(4-(pyrrolidin-1-ylmethyl)benzyl)-1H-pyrazolo[3,4-d]pyrimidin-4-amine], the half-maximal inhibitory concentration (IC50) at CYP3A4 and at CYP2D6 was greater than 30 µM in each case. Further, the maximal effect (Emax) was determined as 0% at human TLR8 and 95% on human TLR7. Also, the EC50 was greater than 30 µM on human TLR8 and 0.18 µM at human TLR7.

Take `CCCCOc1nc(N)c2cnn(Cc3ccc(CN4CCCCC4)cc3)c2n1` [Example 3, 6-Butoxy-1-(4-(piperidin-1-ylmethyl)benzyl)-1H-pyrazolo[3,4-d]pyrimidin-4-amine]: the IC50 at CYP3A4 was found to be 3 µM; on CYP2D6 it was 4 µM. In addition, the maximal response (Emax) on human TLR8 is 2%; on human TLR7, 91%. Besides, the values for the 50% effective concentration (EC50) at human TLR8 and on human TLR7 were greater than 24 µM and 0.077 µM, respectively.

Consider `CCCCOc1nc(N)c2cnn(Cc3cccc(CN4CCCC4)c3)c2n1` [Example 4, 6-Butoxy-1-(3-(pyrrolidin-1-ylmethyl)benzyl)-1H-pyrazolo[3,4-d]pyrimidin-4-amine], for which the IC50 on CYP3A4 stood at 6 µM; at CYP2D6, 16 µM. Besides, the Emax on human TLR8 came out at 28%; on human TLR7 it was 88%. Also, the EC50 on human TLR8 was greater than 30 µM; at human TLR7, 0.166 µM.

These data come from patent US11117898B2, “Pyrazolo-heteroaryl derivative, preparation method and medical use thereof” (Jiangsu Hengrui Medicine Co., Ltd., priority 2016, dated 2021).
